Values of other authors, collected in US11964949B2, “Substituted phenyloxazolidinones for antimicrobial therapy” (priority 2015, dated 2024).

Test system: Mycobacterium tuberculosis, including multidrug-resistant (MDR) and extensively drug resistant (XDR) strains
Conditions: M. tuberculosis incl. MDR and XDR strains; cited from earlier work

CC(=O)NC[C@H]1CN(c2ccc(N3CCOCC3)c(F)c2)C(=O)O1 [Linezolid]
minimum inhibitory concentration (MIC): less than 1 ag/ml
